Values quoted from earlier work in US20120149888A1, “SYNTHESIS OF ARA-2'-O-METHYL-NUCLEOSIDES, CORRESPONDING PHOSPHORAMIDITES AND OLIGONUCLEOTIDES INCORPORATING NOVEL MODIFICATIONS FOR BIOLOGICAL APPLICATION IN THERAPEUCTICS, DIAGNOSTICS, G- TETRAD FORMING OLIGONUCLEOTIDES AND APTAMERS” (priority 2009, published 2012).
“Also recorded” adds a separate entry of the source. Like-named read-outs stand apart in the source and are kept apart here. Each block holds one compound with its values, some of them ahead of it.

Key:
[1] = system: equilibrative NBMPR-sensitive nucleoside transporter (es); conditions: growth-inhibitory concentrations
L1210 TG/R = conditions: Thioguanine-resistant L1210 TG/R
[2] = system: Ehrlich ascites resistant to 5-fluorodeoxyuridine (FUdR); conditions: 5-Fluorodeoxyuridine-resistant Ehrlich ascites
Ehrlich ascites (AZU 1) = conditions: 6-Azauracil-resistant Ehrlich ascites (AZU 1)
[3] = system: 11 human tumor xenografts; conditions: 11 xenografts
[4] = system: explants of intact rat colonic mucosa
AKR/r-AzCR = conditions: 5-Azacytidine-resistant AKR/r-AzCR
[5] = system: Lewis lung carcinoma cells; conditions: in vivo
[6] = system: mouse and human tumor cells
[7] = system: nucleoside carrier-dependent transport; conditions: in vitro
Raji leukemia = conditions: mouse, in vivo
Raji Burkitt's lymphoma = conditions: rat, in vivo
[8] = system: seven tumors (three melanomas, one lung adenocarcinoma, one breast cancer, and two osteogenic sarcomas); conditions: maximum tolerated dose, four weekly cycles of daily bolus i.v. injections for 5 days; lung carcinoma and all three malignant melanomas
L1210-ara-C = L1210-ara-C (Mihich et al., 1970)
[9] = system: 13 human cancer cell lines; conditions: for effect of tetrahydrouridine on antiproliferative activity: Cyd deaminase inhibitor
human cancer xenograft = conditions: in vivo
dCyd kinase = dCyd kinase (Homo sapiens, UniProt P27707)
Chain of dCyd kinase (P27707 whole entry): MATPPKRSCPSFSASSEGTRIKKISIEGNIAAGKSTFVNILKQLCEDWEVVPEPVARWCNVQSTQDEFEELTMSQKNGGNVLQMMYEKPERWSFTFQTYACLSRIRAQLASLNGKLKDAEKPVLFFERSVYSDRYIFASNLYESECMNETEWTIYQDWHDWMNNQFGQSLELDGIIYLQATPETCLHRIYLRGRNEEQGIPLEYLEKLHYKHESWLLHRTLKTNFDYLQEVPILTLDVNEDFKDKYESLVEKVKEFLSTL

L1210/CA = conditions: 1β-D-Arabinofuranosylcytosine-resistant L1210/CA
Sarcoma 180 = conditions: 6-Mercaptopurine-resistant Sarcoma 180
[10] = system: drug-resistant P388 leukemias
[11] = system: human TT cell line derived from MTC; conditions: 10, 25 and 50 microg/ml for 24 hours
[12] = system: bone marrow granulopoietic-macrophage progenitor cells; conditions: granulopoietic-macrophagic progenitor cells
topoisomerase I (top1) = topoisomerase I (top1) (Homo sapiens, UniProt P11387); conditions: gemcitabine incorporated immediately 3′ from a top1 cleavage site on the nonscissile strand
Chain of topoisomerase I (top1) (P11387 whole entry, species assumed): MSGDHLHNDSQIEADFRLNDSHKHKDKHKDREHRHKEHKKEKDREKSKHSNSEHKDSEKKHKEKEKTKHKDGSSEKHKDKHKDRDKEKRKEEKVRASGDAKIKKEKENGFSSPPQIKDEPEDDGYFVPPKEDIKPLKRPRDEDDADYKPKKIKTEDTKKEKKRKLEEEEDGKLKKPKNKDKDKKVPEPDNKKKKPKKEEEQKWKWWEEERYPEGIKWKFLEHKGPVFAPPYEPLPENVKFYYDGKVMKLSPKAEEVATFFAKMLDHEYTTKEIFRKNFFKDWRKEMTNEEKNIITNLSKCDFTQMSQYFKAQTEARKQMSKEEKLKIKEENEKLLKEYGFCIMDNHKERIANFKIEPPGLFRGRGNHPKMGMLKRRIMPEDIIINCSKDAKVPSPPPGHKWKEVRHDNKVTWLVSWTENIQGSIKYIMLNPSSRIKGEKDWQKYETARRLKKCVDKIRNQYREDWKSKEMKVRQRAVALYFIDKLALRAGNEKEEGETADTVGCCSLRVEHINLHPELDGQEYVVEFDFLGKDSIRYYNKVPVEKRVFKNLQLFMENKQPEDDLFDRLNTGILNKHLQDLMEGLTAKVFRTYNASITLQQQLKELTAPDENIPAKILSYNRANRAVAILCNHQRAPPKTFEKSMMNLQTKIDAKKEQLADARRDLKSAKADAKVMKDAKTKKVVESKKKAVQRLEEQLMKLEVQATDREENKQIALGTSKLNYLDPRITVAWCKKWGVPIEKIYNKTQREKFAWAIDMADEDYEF

[13] = system: normal primary prostatic epithelial cells; conditions: concentrations up to 100 nM
[14] = system: P388/CPT45 top1-deficient cells

SMILES: O=c1[nH]cc(F)c(=O)[nH]1 [5-fluorouracil]
expression of es [1]: increases
Response to chemotherapeutic drugs: Cross-resistant (L1210 TG/R): 5-Fluorouracil
Response to chemotherapeutic drugs: Cross-resistant [2]: 5-Fluorouracil
Response to chemotherapeutic drugs: collaterally sensitive (Ehrlich ascites (AZU 1)): 5-Fluorouracil
Response to chemotherapeutic drugs: collaterally sensitive (Ehrlich ascites (AZU 1); listed as FU): collaterally sensitive
human tumors with potent inhibition [3]: only one tumor
incorporation of tritiated TdR into DNA [4]: not altered
levels of tritiated deoxyuridine [4]: reduced

SMILES: Nc1ncn([C@H]2C[C@H](O)[C@@H](CO)O2)c(=O)n1 [AzCdR, 5-aza-2′-deoxycytidine]
Response to chemotherapeutic drugs: Cross-resistant (AKR/r-AzCR): cross-resistant; also recorded: AzCdR

SMILES: [C-]#[N+][C@H]1[C@H](O)[C@@H](CO)O[C@H]1n1ccc(N)nc1=O [Compound 8, 2′-Deoxy-2′-isocyano-1-beta-D-arabinofuranosylcytosine]
tumor volume inhibition [5]: only moderate tumor volume inhibition
cytotoxicity [6]: moderately cytotoxic

SMILES: CCCCCCCC/C=C/CCCCCCCC(=O)OC[C@H]1O[C@@H](n2ccc(N)nc2=O)[C@@H](O)[C@@H]1O [Compound P-4055]
cellular sensitivity in presence of nitrobenzylmercaptopurine riboside and dipyridamol [7]: not
animals that survived (>80 days) (Raji leukemia): 8 of 10
long-time survivors (>70 days) (Raji Burkitt's lymphoma): three of five
tumor response [8]: partial or complete tumor regression

SMILES: CC(=NNC(=N)N)c1ccc(NC(=O)Nc2ccc(C(C)=NNC(=N)N)cc2)cc1 [DDUG, 4′,4′-diacetyldipenylurea bis(guanylhydrazone)]
Response to chemotherapeutic drugs: Cross-resistant (L1210-ara-C): DDUG

VmaxKm for dCyd kinase, lower than that for dCyd (dCyd kinase): 8 fold
SMILES: C=C1[C@H](n2ccc(N)nc2=O)O[C@H](CO)[C@H]1O [DMDC, 2′-deoxy-2′-methylidenecytidine]
suppression of the antiproliferative activity of DMDC by dCyd [9]: up to 150 fold
effect of tetrahydrouridine on antiproliferative activity [9]: reduced
efficacy in tumors with higher levels of Cyd deaminase (human cancer xenograft): highly effective
efficacy in tumors with lower levels of Cyd deaminase (human cancer xenograft): only slight activity

SMILES: CC(C=NNC(=N)N)=NNC(=N)N [MGGH, methylglyoxal bis(guanylhydrazone)]
Response to chemotherapeutic drugs: Same as parent line (L1210/CA): MGGH
Response to chemotherapeutic drugs: Same as parent line (L1210-ara-C): MGGH

SMILES: Nc1nc(N)c2ccc(CNc3ccc(C(=O)N[C@@H](CC(=O)O)C(=O)O)cc3)cc2n1 [Quinaspar]
Response to chemotherapeutic drugs: collaterally sensitive (Sarcoma 180): Quinaspar

top1-mediated DNA cleavage (topoisomerase I (top1)): enhanced
SMILES: Nc1ccn([C@@H]2O[C@H](CO)[C@@H](O)C2(F)F)c(=O)n1 [gemcitabine, 2′,2′difluoro-2′deoxycytidine]
cross resistance to gemcitabine ([10]; P388 resistant to 1-beta-D-arabinofuranosylcytosine): cross resistant
cross resistance to gemcitabine ([10]; P388 resistant to vincristine, cyclophosphamide, melphalan, cisplatin, methotrexate): not cross resistant
cross resistance to gemcitabine ([10]; multidrug-resistant P388 (resistant to doxorubicin or etoposide)): no cross resistance
effect of tetrahydrouridine on antiproliferative activity [9]: increased to some extent
efficacy in tumors with higher levels of Cyd deaminase (human cancer xenograft): only slightly active
dFdC concentration of maximal inhibition of proliferation and colony formation (LNCaP, PC-3 and DU-145; LNCaP, PC-3, DU-145): 30 nM
gemcitabine concentration inhibiting colony formation by two thirds (LNCaP, PC-3 and DU-145; prostatic tumor cells): about 3.5 nM
influence on proliferative activity of TT cells [11]: concentration-dependent inhibitory influence
overall response rate (advanced sarcomas; 1250 mg/m(2) i.v. weekly × three, q28 days): 3%
median time-to progression (advanced sarcomas; in vivo): 2.1 months
patients who discontinued treatment due to toxicity/refusal (advanced sarcomas; in vivo): 14%
hematologic toxicities > or = Grade 3, patients (advanced sarcomas; leukopenia and thrombocytopenia): 32%
gemcitabine concentration inhibiting colony formation by two thirds [12]: 9 nM
response rate with the drug alone (ovarian cancer; previously treated patients): around 13%
response rate for the drug alone (ovarian cancer; previously untreated patients with poor prognostic features): 24%
inhibitory effects in normal primary prostatic epithelial cells [13]: no inhibitory effects
resistance of P388/CPT45 top1-deficient cells to gemcitabine [14]: 5 fold
